The record followed here is patent publication US8759340B2, “Benzodiazepinone compounds useful in the treatment of skin conditions” (The Regents of the University of Michigan, priority 2007, dated 2014).

The melting point is the temperature, or range, at which the solid turns liquid.

In one data set the test system is Ramos cells. Put plainly: Cytotoxicity against Ramos cells. Type of data set: cell-based. As to conditions: Homo sapiens, read-out: EC50 in causing death of Ramos cells. From the text: The compounds described herein can be tested for activity against F1F0-ATPase by measuring ATP synthesis and ATP hydrolysis. In addition, the compounds described herein can be evaluated for cytotoxicity against Ramos cells. Inhibition of ATP synthesis and hydrolysis by the F1F0-ATPase and cytotoxicity in Ramos cells can be measured as described in K. M. Johnson et al. in Chemistry & Biology (2005) Vol. 12, pp. 485-496.

Data set [1] has as its system Human Skin Organ Cultures. Kind of data set: Toxicity (epidermal necrosis) in human skin organ cultures. Type of data set: cell-based. The following applies: necrosis on 0 to 4+ scale, scores ≦1 normal, 8 days organ culture, n=6. An excerpt:
(§1) Replicate 6-mm punch biopsies of full-thickness psoriatic plaque skin were obtained from human skin donors with psoriasis. These biopsies were used in the transplant studies. Six-mm punch biopsies of sun-protected (hip) skin from non-psoriatic donors were obtained as controls. In addition, replicate 2-mm full-thickness punch biopsies of sun-protected hip skin were obtained from normal donors for use in organ culture studies.
(§2) Immediately upon biopsy, the replicate 2-mm punch biopsies (non-psoriatic skin only) were immersed in culture medium consisting of Keratinocyte Basal Medium (KBM) (Lonza, Walkersville, Md.). KBM is a low-Ca^2+, serum-free modification of MCDB-153 medium. It was supplemented with CaCl2 to bring the final Ca^2+ concentration to 1.4 mM. Biopsies were incubated in wells of a 24-well dish containing 400 μl of Ca^2+-supplemented KBM with or without additional treatments (RA and/or Compound H). Cultures were incubated at 37° C. in an atmosphere of 95% air and 5% CO2. Other than to maintain the tissue in a minimal volume of medium, nothing further was done to ensure a strict air-liquid interface. Incubation was for 8 days, with change of medium and fresh treatments provided every second day. At the end of the incubation period, tissue was fixed in 10% buffered formalin and examined histologically after staining with hematoxylin and eosin. Routinely, 3-6 tissue sections were prepared from each block. Epidermal thickness measurements were made at several sites in each tissue section (distance from the dermal-epidermal juncture to the top of the viable portion of the epithelium). The organ culture procedure employed here has been described in the past (Varani et al. (1993) Amer. J. Pathol. 142:189-198; and Varani et al., (1994) J. Clin. Invest. 94:1747-1753). In order to evaluate the toxicity of compound H, tissue was examined histologically and necrosis was assessed on a 0 to 4+ scale, with 0 indicating no change from control and 4+ indicating complete necrosis of the epidermis (n=6). Scores ≦1 were taken as normal.

Data set [2] has as its system RA-induced epidermal hyperplasia. Kind of data set: Inhibition of RA-induced epidermal hyperplasia in human skin organ cultures. Format: cell-based. The following applies: for Percent Reduction in Retinoid-Induced Hyperplasia (%): reduction in epidermal thickness vs RA alone, n=3.
Description: as §1, §2
The average epidermal thickness in the absence of RA was 70-90 μm, while the average epidermal thickness was 275 μm in cells exposed to RA.

In the next data set the test system is human keratinocytes (KC). Put plainly: Keratinocyte proliferation assay. Format: cell-based. The following applies: Homo sapiens, Keratinocyte; for inhibition at 0.05 µM / inhibition at 0.1 µM / inhibition at 0.5 µM / inhibition at 1 µM / inhibition at 5 µM / inhibition at 10 µM: 48 h, KC, day 2, read-out: Percent Inhibition of Cells Per Concentration of Test Compound. As to the method:
Epidermal keratinocytes were isolated from fresh tissue biopsies as described previously (Varani et al., (1994) J. Clin. Invest. 94:1747-1753). Primary and early passage cells were maintained in Keratinocyte Growth Medium (KGM) (Lonza). KGM contains the same basal medium as KBM but is further supplemented with a mixture of growth factors including 0.1 ng per mL EGF, 0.5 μg per mL insulin, and 0.4% bovine pituitary extract. In addition to using low-passage keratinocytes, we also used the HaCat line of immortalized human epidermal keratinocytes in some experiments. The immortalized keratinocytes were handled exactly as low-passage keratinocytes.
(§3) Keratinocyte proliferation was assessed by seeding 4×10^4 cells per well in a 24-well plate using KGM as culture medium. After the cells had attached (overnight), they were washed and triplicate samples were harvested for zero-time counts. DMSO served as a negative control. Proliferation was measured on day 2 by releasing the cells with trypsin/EDTA and enumerating them using a particle counter (Coulter Electronics, Hialeah, Fla.). Fibroblast proliferation studies were conducted in a similar manner except that […] was used as culture medium.
(§4) KC refers to human keratinocytes. HFF refers to human foreskin fibroblasts. The cLogP values were calculated using ChemDraw™ (CambridgeSoft).

In data set [3] the test system is human foreskin fibroblasts (HFF). Kind of data set: Fibroblast proliferation assay. Format: cell-based. As to conditions: Homo sapiens; for inhibition at 1 µM / inhibition at 0.05 µM / inhibition at 0.1 µM / inhibition at 0.5 µM / inhibition at 5 µM / inhibition at 10 µM: 48 h, HFF, day 2, read-out: Percent Inhibition of Cells Per Concentration of Test Compound. The method, then: Fibroblasts obtained from the same tissue were grown in monolayer culture using Dulbecco's modified minimal essential medium supplemented with nonessential amino acids and 10% fetal bovine serum (DMEM-FBS) as culture medium. Both keratinocytes and fibroblasts were maintained at 37° C. in an atmosphere of 95% air and 5% CO2. Cells were subcultured by exposure to trypsin/ethylenediamine tetraacetic acid (EDTA) and used at passage 2-4.
as §3, §4

Entries after “also recorded” stand apart in the source; their conditions may differ.

Turning to `Cc1ccccc1CC1N=C(c2ccc(F)cc2)c2cc(Cl)ccc2NC1=O` (stereo not drawn) [7-Chloro-5-(4-fluorophenyl)-3-(2-methylbenzyl)-1H-benzo[e][1,4]diazepin-2(3H)-one], in the data set with Ramos cells, the EC50 was 7900 nM.
Regarding `Cc1cccc(C)c1CC1N=C(c2ccc(O)cc2)c2cc(Cl)ccc2N(C)C1=O` (stereo not drawn) [Compound 1, (Z)-7-chloro-3-(2,6-dimethylbenzyl)-5-(4-hydroxyphenyl)-1-methyl-1H-benzo[e][1,4]diazepin-2(3H)-one], the Toxicity entry in data set [1] (0.5 μM compound H, listed as Compound H) was “no detectable toxicity; also recorded: None detected”; in data set [1] (1.0 μM compound H, listed as Compound H), “no detectable toxicity; also recorded: None detected”; in data set [1] (2.0 μM compound H, listed as Compound H), 2.0 + 0.5; in data set [1] (2.0 μM compound H, listed as compound H), “Slight toxicity”. Besides, the entries for the “Percent Reduction in Retinoid-Induced Hyperplasia (%)” value in data set [2] (0.5 μM compound H), in data set [2] (1.0 μM compound H) and in data set [2] (2.0 μM compound H) were 40 + 10%, 48 + 15% and over 95%, respectively. Moreover, the inhibition at 0.05 µM (in the data set with human keratinocytes (KC); in data set [3] (Fibroblast)) was under 20% in each case. Besides, the inhibition at 0.1 µM (with human keratinocytes (KC); in data set [3] (Fibroblast)) was under 20% each time. Also, the inhibition at 0.5 µM (with human keratinocytes (KC); in data set [3] (Fibroblast)) was under 20% throughout. Also, the figures for the inhibition at 1 µM (with human keratinocytes (KC); in data set [3]) were at least 20% and under 20%, respectively. The inhibition at 5 µM (in the data set on human keratinocytes (KC); in data set [3] (Fibroblast)) was at least 90% in each case. Also, the inhibition at 10 µM (in the data set with human keratinocytes (KC); in data set [3] (Fibroblast)) was at least 90% throughout. The EC50 in the data set on human keratinocytes (KC) (based on the data from the cell proliferation assays, read-out: EC50 against proliferation of human keratinocyte cells) turned out to be 700 ± 100 nM; in data set [3] (Fibroblast, based on the data from the cell proliferation assays, read-out: EC50 against proliferation of human foreskin fibroblasts), 1400 ± 300 nM.
On to `CCc1ccc(CC2N=C(c3ccc(F)cc3)c3cc(Cl)ccc3NC2=O)cc1CC` (stereo not drawn) [Compound 11, (Z)-7-Chloro-3-(3,4-diethylbenzyl)-5-(4-fluorophenyl)-1H-benzo[e][1,4]diazepin-2(3H)-one], for which the melting point fell in the range of 88 to 90 °C. Moreover, in the data set with human keratinocytes (KC), the inhibition at 0.05 µM was under 20%, the inhibition at 0.1 µM is under 20%, the inhibition at 0.5 µM is under 20% and the inhibition at 1 µM was under 20%. For the same molecule, in the data set on human keratinocytes (KC), the inhibition at 5 µM is at least 90% and the inhibition at 10 µM is at least 90%. In data set [3], the inhibition at 1 µM was under 20%. Besides, in data set [3] (Fibroblast), the inhibition at 0.05 µM is under 20%, the inhibition at 0.1 µM is under 20%, the inhibition at 0.5 µM is under 20% and the inhibition at 5 µM was under 20%. In addition, the inhibition at 10 µM in data set [3] (Fibroblast) was at least 90%.
`CC1=C(/C=C/C(C)=C/C=C/C(C)=C/C(=O)O)C(C)(C)CCC1` [RA, all-trans retinoic acid, reference compound] gave an average epidermal thickness in data set [2] (exposed to RA alone, 70-90 μm in the absence of RA) of 275 μm.
